System: rat myocardial I/R model
Assay: Myocardial infarction area by TTC staining
Type: in vivo
Conditions: for infarction region on TTC-stained heart slices, in contrast to I/R group / inhibition of the increase of the myocardial infarction area percentage caused by I/R: 5 mg/kg BW/h intravenous drip, 60 min after reperfusion, FIG. 6A
Procedure: The rats were anesthetized by intramuscularly injecting 20 wt % urethane (1.25 g/kg) and fixed in the supine position. Neck skin was incised and anterior cervical muscles were separated to expose the trachea. Tracheal intubation was performed. Another end of the intubation was attached to a Small Animal Ventilator (ALC-V8, Shanghai Aoteshai Biology Science and Technology Limited Company, Shanghai, China) so as to carry out pressure breathing under the following conditions: a respiratory ratio of 1:1, a respiratory frequency of 75 times/min and a tidal volume of 12 mL/kg. The rectal temperature, measured with YSI REF 401 (Yellow Spring, Ohio, USA), was maintained at 37 37.5° C. by using a thermal blanket. The chest was sterilized and opened at the intercostal space between 2nd 4th ribs near the left and right sternal border to expose the heart. The 3⁄8 curved needle threaded with 3-0 suture was used to pass through the site at 1 2 mm below the juncture of the pulmonary artery cone and the left atrial appendage. The suture was ligated. A polyethylene tubule was placed between the silk suture and myocardial tissue, the silk suture was […] to cause ischemia. Ligature was released 30 min later to establish an I/R model. Danshensu+I/R group (DLA+I/R group): a Danshensu aqueous solution (in normal saline, 1.25 mg/ml) was administrated at a dosage of 5 mg/kg BW/h by intravenous drip 20 min before the experiment and continued until the end of the entire experiment. Notoginsenoside R1+I/R group (R1+I/R group): a Notoginsenoside R1 aqueous solution (in normal saline, 1.25 mg/ml) was administrated at a dosage of 5 mg/kg BW/h by intravenous drip 20 min before the experiment and continued until the end of the entire experiment. Danshensu:R1(4:1)+I/R group (DR(4:1)+I/R group): an aqueous solution of Danshensu and Notoginsenoside R1 at a weight ratio of 4:1, dissolved in normal saline (1.25 mg/ml, namely, in the solution, the concentration of Danshensu is 1 mg/ml and the concentration of Notoginsenoside R1 is 0.25 mg/ml), was administrated at a dosage of 5 mg/kg BW/h (namely, in the total dosage, the dosage of Danshensu is 4 mg/kg BW/h and the dosage of Notoginsenoside R1 is 1 mg/kg BW/h) by intravenous drip 20 min before the experiment and continued until the end of the entire experiment. Danshensu:R1 (1:1)+I/R group (DR(1:1)+IR group): an aqueous solution of Danshensu and Notoginsenoside R1 at a weight ratio of 1:1, dissolved in normal saline (1.25 mg/ml, namely, in the solution, the concentration of Danshensu is 0.625 mg/ml and the concentration of Notoginsenoside R1 is 0.625 mg/ml), was administrated at a dosage of 5 mg/kg BW/h (namely, in the total dosage, the dosage of Danshensu is 2.5 mg/kg BW/h and the dosage of Notoginsenoside R1 is 2.5 mg/kg BW/h) by intravenous drip 20 min before the experiment and continued until the end of the entire experiment. Danshensu:R1 (0.25:1)+I/R group (DR(0.25:1)+IR group): an aqueous solution of Danshensu and Notoginsenoside R1 at a weight ratio of 0.25:1, dissolved in normal saline (1.25 mg/ml, namely, in the solution, the concentration of Danshensu is 0.25 mg/ml and the concentration of Notoginsenoside R1 is 1.0 mg/ml), was administrated at a dosage of 5 mg/kg BW/h (namely, in the total dosage, the dosage of Danshensu is 1 mg/kg BW/h and the dosage of Notoginsenoside R1 is 4 mg/kg BW/h) by intravenous drip 20 min before the experiment and continued until the end of the entire experiment. […]

SMILES | infarction region on TTC-stained heart slices, in contrast to I/R group | inhibition of the increase of the myocardial infarction area percentage caused by I/R | reduction of the percentage of the myocardial infarction area after I/R (summary) (rats, summary statement of the description)
CC(C)=CCC[C@](C)(O[C@@H]1O[C@H](CO)[C@@H](O)[C@H](O)[C@H]1O)[C@H]1CC[C@]2(C)[C@@H]1[C@H](O)C[C@@H]1[C@@]3(C)CC[C@H](O)C(C)(C)[C@@H]3[C@@H](O[C@@H]3O[C@H](CO)[C@@H](O)[C@H](O)[C@H]3O[C@@H]3OC[C@@H](O)[C@H](O)[C@H]3O)C[C@]12C [Notoginsenoside R1] | decreased slightly | has not significantly inhibited | 
O=C(O)C(O)Cc1ccc(O)c(O)c1 (centres unmarked) [Danshensu, (3,4-dihydroxyphenyl)lactic acid] | decreased obviously | significantly suppress | can reduce

Source: patent US9034398B2, “Traditional Chinese drug comprising Danshen extracts and Sanqi extracts and use thereof” (TASLY Pharmaceutical Group Co., LTD., priority 2009, dated 2015)
